Experimental data as given in article PMC7377239, “Cardiovascular Effects of Polychlorinated Biphenyls and Their Major Metabolites” (Environmental Health Perspectives, 2020).
Counter-ions that a name gives are not always drawn. Like-named read-outs stand apart in the source and are kept apart here.

Key:
HUVECs [1] = assay: High-content imaging cytotoxicity in HUVECs, 24 h; type: cell-based, human; details: Homo sapiens, HUVEC, 24 h; for viability at 0.01 µM / activity at 0.01 µM / viability at 0.1 µM / activity at 0.1 µM / viability at 1 µM / activity at 1 µM / viability at 10 µM / activity at 10 µM / viability at 100 µM / activity at 100 µM: 0.00 µM = 100.00; for viability at 0.1 µM / activity at 0.1 µM: 0.10 µM
Procedure, shortened: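 Read-out: multiwavelength high-content imaging of Hoechst 33342, MitoTracker Orange and calcein AM after 24 h compound exposure of confluent HUVEC monolayers. POD values were set using a one-SD cutoff from vehicle (0.5% DMSO) means; with no concentration–response, 100μM was assigned as no observable adverse effect level.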

HUVECs [2] = assay: Tube formation (tubulogenesis) assay in HUVECs, 18 h; type: cell-based, human; details: Homo sapiens, HUVEC, 18 h; for activity at 0.1 µM: 0.10 µM
Procedure, shortened: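 HUVECs (passage 1–5) seeded on reduced-growth-factor basement membrane and exposed to compounds overnight at 37°C, 5% CO2, in 2× maintenance medium with 12.5 ng/mL VEGF; 0.5% DMSO vehicle. Calcein AM-stained tube networks imaged and analysed; vehicle-normalized readouts fit to four-parameter logistic, POD set at one SD of vehicle means.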

[3] = HUVECs, 24 hr, read-out: huvec.cyto.24hr
[4] = HUVECs, 24 hr, read-out: huvec.mito.24hr
[5] = HUVECs, 24 hr, read-out: huvec.mitoint.24hr
[6] = HUVECs, 24 hr, read-out: huvec.nma.24hr
[7] = HUVECs, 24 hrs, read-out: huvec.tc.24hrs
[8] = HUVECs, 0.00 µM = 100.00, read-out: huvec.mtl.18hr
[9] = HUVECs, 0.00 µM = 100.00, read-out: huvec.tlps.18hr
[10] = HUVECs, 0.00 µM = 100.00, read-out: huvec.tta.18hr
[11] = HUVECs, 0.00 µM = 100.00, read-out: huvec.ttl.18hr
[12] = cyto, 24 hr, read-out: POD huvec.cyto.24hr
[13] = mito, 24 hr, read-out: POD huvec.mito.24hr
[14] = mitoint, 24 hr, read-out: POD huvec.mitoint.24hr
[15] = nma, 24 hr, read-out: POD huvec.nma.24hr
[16] = tc, 24 hr, read-out: POD huvec.tc.24hr
[17] = tube formation mtl, read-out: POD huvec.mtl.18hr
[18] = tube formation tlps, read-out: POD huvec.tlps.18hr
[19] = tube formation tta, read-out: POD huvec.tta.18hr
[20] = tube formation ttl, read-out: POD huvec.ttl.18hr

COc1ccc(-c2ccc(Cl)cc2)cc1 [4'-OMe PCB3] showed a viability at 0.01 µM (HUVECs [1]; [3]) of 87.9%, an activity at 0.01 µM (HUVECs [1]; [4]) of 86.7% and an activity at 0.01 µM (HUVECs [1]; [5]) of 91.6%. It also gave an activity at 0.01 µM (HUVECs [1]; [6]) of 101%, a viability at 0.1 µM (HUVECs [1]; [3]) of 99.3% and an activity at 0.1 µM (HUVECs [1]; [4]) of 98.5%. For the same compound, the activity at 0.1 µM (HUVECs [1]; [5]) was 97.3%, the activity at 0.1 µM (HUVECs [1]; [6]) was 98.2% and the viability at 1 µM (HUVECs [1]; [3]) was 94.1%. The activity at 1 µM (HUVECs [1]; [4]) was 93.8%, the activity at 1 µM (HUVECs [1]; [5]) was 91% and the activity at 1 µM (HUVECs [1]; [6]) was 96.4%. The viability at 10 µM (HUVECs [1]; [3]) was 94.1%, the activity at 10 µM (HUVECs [1]; [4]) was 92.9% and the activity at 10 µM (HUVECs [1]; [5]) was 94%. For the same compound, the activity at 10 µM (HUVECs [1]; [6]) was 92.3%, the viability at 100 µM (HUVECs [1]; [3]) was 70.2% and the activity at 100 µM (HUVECs [1]; [4]) was 70.1%. For the same compound, the activity at 100 µM (HUVECs [1]; [6]) was 73.7%, the minimal effective concentration (HUVECs [1]; HUVECs, 24 hr, top concentration 100.00 µM, read-out: huvec.cyto.24hr POD) was 8.6 µM and the minimal effective concentration (HUVECs [1]; HUVECs, 24 hr, top concentration 100.00 µM, read-out: huvec.mito.24hr POD) was 5.97 µM. For the same compound, the minimal effective concentration (HUVECs [1]; HUVECs, 24 hr, top concentration 100.00 µM, read-out: huvec.mitoint.24hr POD) was 32 µM, the minimal effective concentration (HUVECs [1]; HUVECs, 24 hr, top concentration 100.00 µM, read-out: huvec.nma.24hr POD) was 1.41 µM and the viability at 0.01 µM (HUVECs [1]; [7]) was 87.9%. It also gave a viability at 0.1 µM (HUVECs [1]; [7]) of 99.3%, a viability at 1 µM (HUVECs [1]; [7]) of 94.1% and a viability at 10 µM (HUVECs [1]; [7]) of 94.1%. It also gave a viability at 100 µM (HUVECs [1]; [7]) of 70.2%, a minimal effective concentration (HUVECs [1]; HUVECs, 24 hrs, top concentration 100.00 µM, read-out: huvec.tc.24hrs POD) of 8.6 µM and an activity at 0.01 µM (HUVECs [2]; [8]) of 112%. The activity at 0.01 µM (HUVECs [2]; [9]) was 133%, the activity at 0.01 µM (HUVECs [2]; [10]) was 123% and the activity at 0.01 µM (HUVECs [2]; [11]) was 113%. The activity at 0.1 µM (HUVECs [2]; [8]) was 111%, the activity at 0.1 µM (HUVECs [2]; [9]) was 139% and the activity at 0.1 µM (HUVECs [2]; [10]) was 131%. It also gave an activity at 0.1 µM (HUVECs [2]; [11]) of 125%, an activity at 1 µM (HUVECs [2]; [8]) of 103% and an activity at 1 µM (HUVECs [2]; [9]) of 128%. The activity at 1 µM (HUVECs [2]; [10]) was 116%, the activity at 1 µM (HUVECs [2]; [11]) was 111% and the activity at 10 µM (HUVECs [2]; [8]) was 81.4%. For the same compound, the activity at 10 µM (HUVECs [2]; [9]) was 122%, the activity at 10 µM (HUVECs [2]; [10]) was 75.2% and the activity at 10 µM (HUVECs [2]; [11]) was 75.8%. The activity at 100 µM (HUVECs [2]; [8]) was 58.6%, the activity at 100 µM (HUVECs [2]; [9]) was 37.2% and the activity at 100 µM (HUVECs [2]; [10]) was 51.7%. The activity at 100 µM (HUVECs [2]; [11]) was 48.9%, the minimal effective concentration (HUVECs [2]; HUVECs, top concentration 100.00 µM, read-out: huvec.mtl.18hr POD) was 7.13 µM and the minimal effective concentration (HUVECs [2]; HUVECs, top concentration 100.00 µM, read-out: huvec.tlps.18hr POD) was 49.5 µM. For the same compound, the minimal effective concentration (HUVECs [2]; HUVECs, top concentration 100.00 µM, read-out: huvec.tta.18hr POD) was 8.82 µM and the minimal effective concentration (HUVECs [2]; HUVECs, top concentration 100.00 µM, read-out: huvec.ttl.18hr POD) was 7.82 µM.
O=S(=O)(O)Oc1cccc(-c2ccc(Cl)cc2)c1 [3'-PCB 3 sulfate] showed a minimal effective concentration (HUVECs [1]; [12]) of 100 µM, a minimal effective concentration (HUVECs [1]; [13]) of 100 µM and a minimal effective concentration (HUVECs [1]; [14]) of 100 µM. It also gave a minimal effective concentration (HUVECs [1]; [15]) of 100 µM, a minimal effective concentration (HUVECs [1]; [16]) of 100 µM and a minimal effective concentration (HUVECs [2]; [17]) of 15.5 µM. For the same compound, the minimal effective concentration (HUVECs [2]; [18]) was 100 µM, the minimal effective concentration (HUVECs [2]; [19]) was 100 µM and the minimal effective concentration (HUVECs [2]; [20]) was 100 µM.
In the case of Clc1ccc(Cl)c(-c2c(Cl)ccc(Cl)c2Cl)c1 [PCB 95, 2,2′,3,5′,6-pentachlorobiphenyl], the minimal effective concentration (HUVECs [1]; [12]) is reported as 0.01 µM, the minimal effective concentration (HUVECs [1]; [13]) is reported as 0.022 µM and the minimal effective concentration (HUVECs [1]; [14]) is reported as 7.41 µM. It also gave a minimal effective concentration (HUVECs [1]; [15]) of 1.93 µM, a minimal effective concentration (HUVECs [1]; [16]) of 0.01 µM and a minimal effective concentration (HUVECs [2]; [17]) of 8.29 µM. It also gave a minimal effective concentration (HUVECs [2]; [18]) of 100 µM, a minimal effective concentration (HUVECs [2]; [19]) of 100 µM and a minimal effective concentration (HUVECs [2]; [20]) of 100 µM.
